Experimental data from patent publication US5495000A, “Anticoagulant peptides” (Merrell Pharmaceuticals Inc., priority 1995, dated 1996).
pIC50: −log10 of the molar value. *1 amine or outer side, *2 acyl side, *3 side chain or, on linkers, in order; H or OH if unused. Where a SMILES comes first, the peptide text is derived from it. [ ]: non-standard residue; d: D form. Cha = N[C@@H](CC1CCCCC1)C(=O)O; Suc = O=C(CCC(=O)[*:2])[*:1]

Tested on: Fibrin-Clot
Assay: Fibrin-Clot Inhibition
Assay type: biochemical

In order of falling pIC50:
1. CC[C@H](C)[C@H](NC(=O)[C@H](CC(=O)O)NC(=O)[C@H](CC(=O)O)NC(=O)[C@H](CC(C)C)NC(=O)[C@H](CO)NC(=O)[C@H](Cc1ccccc1)NC(=O)[C@@H]1CCCN1C(=O)[C@H](CCC(=O)O)NC(=O)[C@H](Cc1ccccc1)NC(=O)CCC(=O)O)C(=O)N[C@@H](CCC(=O)O)C(=O)N[C@@H](CCC(N)=O)C(=O)O [Example 5, Suc-Phe-Glu-Pro-Phe-Ser-Leu-Asp-Asp-Ile-Glu-Gln-OH] (Suc-FEPFSLDDIEQ-OH)  5.74
2. CC[C@H](C)[C@H](NC(=O)[C@H](CC(=O)O)NC(=O)[C@H](CC(=O)O)NC(=O)[C@H](CC(C)C)NC(=O)[C@@H]1CCCN1C(=O)[C@@H](Cc1ccccc1)NC(=O)[C@H](CCC(=O)O)NC(=O)[C@H](CCC(=O)O)NC(=O)[C@H](Cc1ccccc1)NC(=O)CCC(=O)O)C(=O)N[C@@H](CCC(=O)O)C(=O)N[C@@H](CCC(N)=O)C(=O)O [Example 6, Suc-Phe-Glu-Glu-phe-Pro-Leu-Asp-Asp-Ile-Glu-Gln-OH] (Suc-FEE[dF]PLDDIEQ-OH)  5.64
3. CC[C@H](C)[C@H](NC(=O)[C@H](CC(=O)O)NC(=O)[C@H](CC(=O)O)NC(=O)[C@H](CC(C)C)NC(=O)[C@H](CO)NC(=O)[C@H](Cc1ccccc1)NC(=O)[C@H](CCC(=O)O)NC(=O)[C@H](CCC(=O)O)NC(=O)[C@H](Cc1ccccc1)NC(=O)CCC(=O)O)C(=O)N[C@@H](CCC(=O)O)C(=O)N[C@@H](CCC(N)=O)C(=O)O [Example 4, Suc-Phe-Glu-Glu-Phe-Ser-Leu-Asp-Asp-Ile-Glu-Gln-OH] (Suc-FEEFSLDDIEQ-OH)  5.57
4. CC(C)C[C@H](NC(=O)[C@H](CO)NC(=O)[C@H](Cc1ccccc1)NC(=O)[C@H](CCC(=O)O)NC(=O)[C@H](CCC(=O)O)NC(=O)[C@H](Cc1ccccc1)NC(=O)CCC(=O)O)C(=O)N[C@@H](CC(=O)O)C(=O)N[C@@H](CC(=O)O)C(=O)N[C@@H](CC1CCCCC1)C(=O)N[C@@H](CCC(=O)O)C(=O)N[C@@H](CCC(N)=O)C(=O)O [Example 7, Suc-Phe-Glu-Glu-Phe-Ser-Leu-Asp-Asp-Cha-Glu-Gln-OH] (Suc-FEEFSLDD[Cha]EQ-OH)  5.15
